For eight compounds, IC50 results are on record in patent US8518912B2, “Phosphonic acid derivates and their use as P2Y12 receptor antagonists” (Actelion Pharmaceuticals Ltd., priority 2008, dated 2013).

pIC50: −log10 of the molar value.

The target in the experiment is T1, human P2Y12 receptor (Homo sapiens, UniProt Q9H244).
T1 construct: expressed in transfected cells; host or cells: Chinese Hamster Ovary (CHO) cells
T1 sequence (Q9H244 whole entry): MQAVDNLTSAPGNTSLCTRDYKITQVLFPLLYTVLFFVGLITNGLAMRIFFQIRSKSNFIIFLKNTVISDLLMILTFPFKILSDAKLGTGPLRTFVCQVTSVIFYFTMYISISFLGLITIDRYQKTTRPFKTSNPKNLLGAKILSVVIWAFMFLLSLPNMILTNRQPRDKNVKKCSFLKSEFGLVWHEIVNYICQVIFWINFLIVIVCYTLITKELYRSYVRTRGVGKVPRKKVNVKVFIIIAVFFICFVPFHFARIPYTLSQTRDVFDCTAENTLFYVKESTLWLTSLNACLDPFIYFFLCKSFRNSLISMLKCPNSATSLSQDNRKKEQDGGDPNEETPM
The experiment is described as follows: P2Y12 receptor binding assay. The settings on record: CHO cells with recombinant human P2Y12 receptor; tritium-labeled 2-methyl-S-ADP; 2 hours at RT. On the procedure: Chinese Hamster Ovary (CHO) cells with recombinant expression of the human P2Y12 receptor were cultured in 24 well cell-culture plates. Cells were washed three times with binding buffer (50 mM Tris pH 7.4, 100 mM NaCl, […], 0.5% BSA). The cells were then incubated with 0.5 ml per well binding buffer containing tritium-labeled 2-methyl-thio-adenosine 5′-diphosphate (2-methyl-S-ADP) (between 100,000 and 300,000 dpm per well) and various concentrations of test compounds. After incubation at RT for 2 hours, cells were washed three times with binding buffer. Then, cells were solubilized by addition of 0.5 ml solubilization buffer (SDS, NaOH, EDTA). The content of each well was then transferred into beta-counter vials and 2.0 ml of Ultima Gold Scintillation liquid was added.
As usually defined, the pIC50 is the negative decadic logarithm of the IC50, by convention in mol/L. In the case of `CCCCOC(=O)N1CCN(C(=O)[C@H](CP(=O)(N[C@H](C(=O)OC)c2ccccc2)N[C@H](C(=O)OC)c2ccccc2)NC(=O)c2cc(N3CC[C@H](OC)C3)nc(-c3ccccc3)n2)CC1` [Example 88, N,N′-Bis-((S)-1-methoxycarbonyl-1-phenyl-methyl)-2-{(R)-[6-((S)-3-methoxy-pyrrolidin-1-yl)-2-phenyl-pyrimidine-4-carbonyl]-amino}-3-oxo-3-(4-butoxy-carbonyl-piperazin-1-yl)-propyl-phosphonic acid diamide], the pIC50 was 7.66.

Consider `CCCCOC(=O)N1CCN(C(=O)[C@H](CP(=O)(N[C@@H](C)C(=O)OC)N[C@@H](C)C(=O)OC)NC(=O)c2cc(N3CC[C@H](OC)C3)nc(-c3ccccc3)n2)CC1` [Example 89, N,N′-Bis-((S)-1-methoxycarbonyl-ethyl)-2-{(R)-[6-((S)-3-methoxy-pyrrolidin-1-yl)-2-phenyl-pyrimidine-4-carbonyl]-amino}-3-oxo-3-(4-butoxy-carbonyl-piperazin-1-yl)-propyl-phosphonic acid diamide], for which the negative logarithm of the IC50 (pIC50) is 6.79.

In the case of `CCCCOC(=O)N1CCN(C(=O)[C@H](CP(=O)(NC(C)(C)C(=O)OCC)NC(C)(C)C(=O)OCC)NC(=O)c2cc(N3CC[C@H](OC)C3)nc(-c3ccccc3)n2)CC1` [Example 92, N,N′-Bis-(2-ethoxycarbonyl-prop-2-yl)-2-{(R)-[6-((S)-3-methoxy-pyrrolidin-1-yl)-2-phenyl-pyrimidine-4-carbonyl]-amino}-3-oxo-3-(4-butoxy-carbonyl-piperazin-1-yl)-propyl-phosphonic acid diamide], the pIC50 is 7.38.

For the compound `CCCCOC(=O)N1CCN(C(=O)[C@H](CP(=O)(OCOC(=O)OC)OCOC(=O)OC)NC(=O)c2cc(N3CC[C@H](OC)C3)nc(-c3ccccc3)n2)CC1` [Example 93, 4-((R)-3-[Bis-(methoxycarbonyloxy-methoxy)-phosphoryl]-2-{[6-((S)-3-methoxy-pyrrolidin-1-yl)-2-phenyl-pyrimidine-4-carbonyl]-amino}-propionyl)-piperazine-1-carboxylic acid butyl ester], the negative logarithm of the IC50 (pIC50) was 8.46.

For `CCCCOC(=O)N1CCN(C(=O)[C@H](CP(=O)(OCOC(=O)OC(C)C)OCOC(=O)OC(C)C)NC(=O)c2cc(N3CC[C@H](OC)C3)nc(-c3ccccc3)n2)CC1` [Example 95, 4-((R)-3-[Bis-(isopropoxycarbonyloxy-methoxy)-phosphoryl]-2-{[6-((S)-3-methoxy-pyrrolidin-1-yl)-2-phenyl-pyrimidine-4-carbonyl]-amino}-propionyl)-piperazine-1-carboxylic acid butyl ester], the pIC50 was 7.47.

For the compound `CCCCOC(=O)N1CCN(C(=O)[C@H](CP(=O)(OCc2oc(=O)oc2C)OCc2oc(=O)oc2C)NC(=O)c2cc(N3CC[C@H](OC)C3)nc(-c3ccccc3)n2)CC1` [Example 101, 4-((R)-3-[Bis-(5-methyl-2-oxo-[1,3]dioxol-4-ylmethoxy)-phosphoryl]-2-{[6-((S)-3-methoxy-pyrrolidin-1-yl)-2-phenyl-pyrimidine-4-carbonyl]-amino}-propionyl)-piperazine-1-carboxylic acid butyl ester], the pIC50 was 8.49.

Regarding `CCCCOC(=O)N1CCN(C(=O)[C@H](CP(=O)(O[C@@H](C)C(=O)OCC)O[C@@H](C)C(=O)OCC)NC(=O)c2cc(N3CC[C@H](OC)C3)nc(-c3ccccc3)n2)CC1` [Example 107, 4-((R)-3-[Bis-((S)-1-ethoxycarbonyl-ethoxy)-phosphoryl]-2-{[6-((S)-3-methoxy-pyrrolidin-1-yl)-2-phenyl-pyrimidine-4-carbonyl]-amino}-propionyl)-piperazine-1-carboxylic acid butyl ester], the pIC50 is 6.82.

Regarding `CCCCOC(=O)N1CCN(C(=O)[C@H](CP2(=O)OCCCO2)NC(=O)c2cc(N3CC[C@H](OC)C3)nc(-c3ccccc3)n2)CC1` [Example 109, 4-[(R)-2-{[6-((S)-3-Methoxy-pyrrolidin-1-yl)-2-phenyl-pyrimidine-4-carbonyl]-amino}-3-(2-oxo-2λ^5-[1,3,2]dioxaphosphinan-2-yl)-propionyl]piperazine-1-carboxylic acid butyl ester], the negative-log IC50 (pIC50) was 6.68.
